The OPERA property sets (Mansouri et al. 2018)
Where a SMILES comes first, the peptide text is derived from it.

First: CCOC(=O)c1c(O)c2ccc(Cl)cc2[nH]c1=O
Second: COC(=O)c1ccc(Cl)cc1[N+](=O)[O-]
The logP of the first is higher: 2.6 for the first, 2.35 for the second.

Going from `CCNN=Nc1ccc(C(N)=O)cc1` to `Cc1ccc(C(=O)NN=Cc2c(CO)ccc(C)c2O)cc1`, the logP rises from 1.19 to 3.39.

Compared with `COc1ccc(C2Cc3c(C(=O)OCc4ccccc4)cccc3N(CCN(C)C)C(=O)C2OC(C)=O)cc1` (centres undefined), `CCCC1C(=O)N(CCN(C)C)c2ccccc2CC1c1ccc(OC)cc1` (centres undefined) is higher in logP: 5.3 for the first, 5.6 for the second.

First: COC(=O)C(C)S(=O)(=O)c1ccc([N+](=O)[O-])cc1 (centres undefined)
Second: COC(=O)C(=Cc1ccccc1)S(=O)(=O)c1ccc([N+](=O)[O-])cc1
The logP of the first is lower: 1.06 for the first, 2.9 for the second.

Going from `Cn1c([N+](=O)[O-])cnc1C=NNC(N)=S` to `COC(=O)C=CCn1ccnc1[N+](=O)[O-]`, the logP falls from 0.65 to 0.32.

Compared with `CCCCCN(C)CC(=O)Nc1c(C)cccc1C`, `CCCCCNCc1ccc(C)cc1` is higher in logP: 3.2 for the first, 4.26 for the second.

Going from `Cc1cc(C(=O)O)ccc1[N+](=O)[O-]` to `CC(Nc1ccc([N+](=O)[O-])cc1[N+](=O)[O-])C(=O)O` (centres undefined), the logP falls from 2.42 to 2.09.

Compared with `CNc1ccc2cc3ccccc3nc2c1CO`, `COC(=O)c1cc2ccc3cccc4ccc(c1)c2c34` is higher in logP: 2.1 for the first, 4.85 for the second.

First: CC(C)CC(NC(=O)C(Cc1c[nH]c2ccccc12)NC(=O)C(N)Cc1c[nH]c2ccccc12)C(=O)O (stereo not drawn) (H-Trp-Trp-Leu-OH; configuration not given here)
Second: NC(Cc1c[nH]c2ccccc12)C(=O)NC(Cc1ccc(O)cc1)C(=O)O (centres undefined)
The logP of the first is higher: 0.36 for the first, -1.13 for the second.

Going from `NC(=O)C(N)Cc1c[nH]c2ccccc12` (centres undefined) to `NC(Cc1ccc(Cl)cc1)C(=O)O` (centres undefined), the logP falls from 0.3 to -0.47.

Compared with `O=C1C=C(N2CCCC2)C(=O)N1c1ccc(Cl)cc1`, `O=C1N=C(N2CCOCC2)CN1c1ccc(Cl)c(Cl)c1` is lower in logP: 3 for the first, 1.9 for the second.

`CCC(C)C(NC(=O)C(N)CC(C)C)C(=O)NC(C(=O)O)C(C)O` (stereo not drawn) (H-Leu-Ile-Thr-OH; configuration not given here) and `CCC(C)C(NC(=O)C(Cc1ccc(O)cc1)NC(=O)C(C)N)C(=O)O` (centres undefined) are within 0.2 log units of each other in logP: -2.14 for the first, -2.04 for the second.

`C#CCCCCl` and `CCCCCCNCCO` are within 0.2 log units of each other in logP: 1.85 for the first, 1.67 for the second.

First: Cc1cc(=O)oc2c1cc(C)c1occ(C)c12
Second: Cc1coc2c(C)c3oc(=O)ccc3cc12
The logP of the first is higher: 3.23 for the first, 2.81 for the second.

Going from `OCCCCCCNc1ncnc2nc[nH]c12` to `OCCCCCCCNc1ncnc2c1ncn2C1OC(CO)C(O)C1O` (centres undefined), the logP falls from 1.14 to 0.68.

Going from `Cn1c(=O)[nH]c2ncn(C)c2c1=O` to `CC(=O)N(c1nc(=O)n(C(C)C)c(=O)n1C)C(C)C`, the logP rises from -0.22 to 0.18.

Compared with `ClCC1(C(Cl)Cl)C2CC(Cl)(Cl)C1(C(Cl)Cl)CC2(Cl)Cl` (centres undefined), `CCC(C)C(NC(=O)C1CCCN1)C(=O)O` (stereo not drawn) (H-Pro-Ile-OH; configuration not given here) is lower in logP: 5.96 for the first, -2.56 for the second.

First: Cc1cc2c(ccc3c(C)c(C)c(=O)oc32)o1
Second: Cc1cc2c(cc(C)c3ccc(=O)oc32)o1
The logP of the first is higher: 3.27 for the first, 2.92 for the second.

Compared with `COC(=O)c1[nH]cc(-c2ccccc2C)c1N1CCOCC1`, `COC(=O)c1[nH]cc(-c2ccc(Br)cc2)c1N1CCOCC1` is higher in logP: 2.8 for the first, 3.8 for the second.

Compared with `FC(F)(F)c1ccc(CNc2[nH]cnc3ncnc2-3)cc1`, `CCOc1ccc(CNc2[nH]cnc3ncnc2-3)cc1` is lower in logP: 3.19 for the first, 2.6 for the second.

First: C=C(Cl)CON=C(C)c1cccc(Oc2nc(OC)cc(OC)n2)c1C(=O)OC
Second: COC(=O)c1c(Oc2nc(OC)cc(OC)n2)cccc1C(C)=NOCc1ccccc1
The logP of the first is lower: 3.63 for the first, 4.01 for the second.

Compared with `CCC(C)C(NC(=O)CNC(=O)C1CCCN1C(=O)C(N)Cc1ccc(O)cc1)C(=O)O` (centres undefined) (H-YPGI-OH; configuration not given here), `CSCCC(NC(=O)C(Cc1ccccc1)NC(=O)CNC(=O)C(C)NC(=O)C(N)Cc1ccc(O)cc1)C(=O)O` (centres undefined) is higher in logP: -1.65 for the first, -0.59 for the second.

Compared with `Cc1cccc(Nc2ccncc2S(=O)(=O)NC(=O)NC(C)C)c1`, `CCCNc1ccncc1S(=O)(=O)NC(=NC#N)NC(C)C` is lower in logP: 3.37 for the first, 0.35 for the second.

First: COc1ccc(C(C)=O)c(O)c1
Second: COc1cc(Cl)cc(Cl)c1O
The logP of the first is lower: 1.98 for the first, 2.86 for the second.

Going from `CCCCOc1ccc(NC(=O)OCCN2CCCCC2)cc1` to `CCCOc1cccc(NC(=O)OCCN2CCCCC2)c1`, the logP falls from 4.69 to 4.48.

`COc1ccc(CCNCC(O)COc2ccc(OCc3ncc[nH]3)cc2)cc1OC` (centres undefined) and `COc1ccc(CCNCC(O)COc2ccc(-c3nccs3)cc2)cc1OC` (centres undefined) are within 0.2 log units of each other in logP: 2.6 for the first, 2.5 for the second.

`CSCCC(N)C(=O)NC(Cc1ccc(O)cc1)C(=O)O` (stereo not drawn) (H-Met-Tyr-OH; configuration not given here) and `O=C(O)C(Cc1ccccc1)NC(=O)C1CCCN1` (stereo not drawn) (H-Pro-Phe-OH; configuration not given here) are within 0.2 log units of each other in logP: -2.03 for the first, -2.07 for the second.

Compared with `CON(C)C(=O)Nc1ccc(OC(C)CC2CCCCC2)cc1` (centres undefined), `CC(C)NCC(O)COc1ccccc1C1CCCCC1` (centres undefined) is lower in logP: 4.51 for the first, 3.68 for the second.

Going from `CC(C)NC(CO)C(O)c1ccccc1` (centres undefined) to `CC(=NNC(=O)c1ccccc1)c1cnccn1`, the logP rises from 1.19 to 1.9.

First: CN1CCN(c2cc3c(cc2F)c(=O)c(C(=O)O)cn3C2CC2)CC1
Second: COC(=O)c1c(N2CCOCC2)c(-c2ccc(Cl)cc2)cn1C(=O)N1CCOCC1
The logP of the first is lower: 0.15 for the first, 3.1 for the second.

Going from `CCOc1cc2ncnc(Nc3ccccc3F)c2cc1OCC` to `COc1cc2c(cc1OC)C(C=Cc1ccccc1)=NCC2`, the logP rises from 3.02 to 3.39.

Going from `Clc1cccc(N2CCN(CCn3nc4ccccc4n3)CC2)c1` to `CN1CCN(CCn2nnc3ccccc32)CC1`, the logP falls from 4.1 to 0.36.

Going from `Brc1cc(Br)c2ccc3cccc4ccc1c2c43` to `COc1cc(OC)nc(Sc2cccc(Oc3ccccc3)c2C(=O)O)n1`, the logP falls from 6.85 to 4.15.

Compared with `COc1ccc(S(C)(=O)=O)cc1CNC1CCCNC1c1ccccc1` (centres undefined), `CS(=O)c1ccc2c(c1)C(c1ccccc1)=NCC(=O)N2` (centres undefined) is lower in logP: 1.9 for the first, 0.8 for the second.

Compared with `COc1ccc2c(c1)COP(=O)(OCC1C=CC(n3cc(C)c(=O)[nH]c3=O)O1)O2` (centres undefined), `Cc1ccc2c(c1)COP(=O)(OCC1C=CC(n3cc(C)c(=O)[nH]c3=O)O1)O2` (centres undefined) is higher in logP: 0.36 for the first, 0.73 for the second.

`CCC1OC(Cn2cncn2)(c2ccc(Cl)cc2Cl)OC1C` (centres undefined) and `CCCCC(O)C(CCCCOc1cccc(C)c1)n1cncn1` (centres undefined) are within 0.2 log units of each other in logP: 3.41 for the first, 3.6 for the second.

First: c1nc2nc[nH]c(N3CCC3)c-2n1
Second: CN1CCc2cccc(Cl)c2CC1
The logP of the first is lower: 0.87 for the first, 2.92 for the second.

First: CC(C)NC(=NC#N)NS(=O)(=O)c1cnccc1NC1CCCCC1
Second: O=C(NC1CCCCCC1)NS(=O)(=O)c1cnccc1NC1CCCCCCC1
The logP of the first is lower: 1.53 for the first, 5.35 for the second.

First: Cc1nc2c3c(c(C(=O)N(C)C)cn2c1C)CCC(c1cccs1)O3 (centres undefined)
Second: Cc1nc2c3c(c(C(=O)N(C)C)cn2c1Br)CCC(c1ccccc1)O3 (centres undefined)
The logP of the first is lower: 2.8 for the first, 3.4 for the second.

First: O=C(O)CCCCON=C(c1ccccc1)c1ncccn1
Second: O=C(c1ccccc1)c1ccnnc1
The logP of the first is higher: 1.94 for the first, 1.09 for the second.

Going from `CCON=C(CC)C1=C(O)CC(c2cccc(Oc3ccc(Cl)c(Cl)c3)c2)CC1=O` (centres undefined) to `CCCC(=NOCC)C1=C(O)CC(C)(C)OC1=O`, the logP falls from 6.32 to 2.56.

`Cc1cc2cc3ccc(=O)oc3c(C)c2o1` and `Cc1coc2cc3oc(=O)ccc3c(C)c12` are within 0.2 log units of each other in logP: 2.93 for the first, 2.79 for the second.

Going from `c1ccc2c(c1)OCC(CCc1ncc[nH]1)O2` (centres undefined) to `Cc1cccc(C)c1Cc1ccccn1`, the logP rises from 1.99 to 3.48.

First: CC[C@H](C)C(=O)O[C@H]1C[C@H](O)C=C2C=C[C@H](C)[C@H](CC[C@@H](O)C[C@@H](O)CC(=O)O)[C@H]21
Second: CCCCC(=O)OCOCC(=O)C1(O)Cc2c(O)c3c(c(O)c2C(OC2CC(N(C)C)C(O)C(C)O2)C1)C(=O)c1c(OC)cccc1C3=O (centres undefined)
The logP of the first is lower: 2.18 for the first, 2.82 for the second.

First: Nc1nnnn1-c1c(Cl)cccc1Cl
Second: Nc1nnnn1-c1ccc(Cl)c(Cl)c1
The logP of the first is lower: 1.56 for the first, 2.06 for the second.

`Nc1nnnn1-c1ccc([N+](=O)[O-])cc1` and `Nc1nnnn1-c1ccccc1Cl` are within 0.2 log units of each other in logP: 0.77 for the first, 0.87 for the second.

First: Brc1cc(Br)c(N=C2NCCN2)c(Br)c1
Second: Cc1csc(Cl)c1NC1=NCCN1
The logP of the first is higher: 2.54 for the first, 1.18 for the second.

Compared with `C[C@]12CC[C@@H](O)C[C@@H]1CC[C@@H]1[C@@H]2CC[C@]2(C)[C@@H](O)CC[C@@H]12`, `C=CC(=O)OC1CCCCC1` is lower in logP: 4.16 for the first, 2.8 for the second.

Compared with `Cc1ccc(CO)c(C=NNC(=O)c2ccncc2)c1O`, `CC(=NNC(=O)c1ccc(O)cc1)c1cnccn1` is lower in logP: 2.16 for the first, 1.9 for the second.

First: N#Cc1cccc(Cn2cnc3ccccc32)c1
Second: O=C1NC(c2ccccc2)(c2ccccc2)C(=O)N1CO
The logP of the first is higher: 2.47 for the first, 2.23 for the second.

First: O=S(=O)(c1ccccc1)C(F)(F)F
Second: CC(C)C1(C)N=C(c2ncc(-c3ccccc3)cc2C(=O)O)NC1=O (centres undefined)
The logP of the first is higher: 2.68 for the first, 2.24 for the second.

Going from `CON=C(C(=O)NC1C(=O)N2C(C(C)OC(C)=O)=CCSC12)c1csc(N)n1` (centres undefined) to `COC(=O)C1=C(C)NC(C)=C(C(=O)OC(C)C)C1c1cccc2c1OCO2` (centres undefined), the logP rises from 0.46 to 4.15.

Going from `CC(=O)OCCOC(=O)C(C)c1cccc(C(=O)c2ccccc2)c1` (centres undefined) to `CC(=O)c1c(C)nc2c3c(c(C(=O)N(C)C)cn12)CCC(c1ccccc1)O3` (centres undefined), the logP falls from 3.1 to 2.75.

`COC(=O)C(=Cc1cnc(SC(C)=O)n1C)C(=O)OC` and `CSCC(NC(C)=O)C(N)=O` (centres undefined) are within 0.2 log units of each other in logP: -0.43 for the first, -0.6 for the second.

First: S=C=NCCCCCCCCc1ccccc1
Second: CCCCCCCNC1=NS(=O)N=C1NCCSCc1ccc(CN(C)C)o1 (centres undefined)
The logP of the first is higher: 5.81 for the first, 3.91 for the second.

First: CCCC(=O)OC1Cc2c(O)cc(O)cc2OC1c1ccc(O)c(O)c1 (centres undefined)
Second: CCCC(=O)OCC1OC(n2cc(I)c(=O)[nH]c2=O)CC1O (centres undefined)
The logP of the first is higher: 2.47 for the first, 0.88 for the second.

Going from `Nc1ccn(C2CC(CO)C(O)C2O)c(=O)n1` (centres undefined) to `O=C1CCC(=O)N1c1ccc(Cl)c(Cl)c1`, the logP rises from -2.41 to 1.35.

Going from `CCOCCOCCOc1ccc(NC(=O)NC23CC4CC(CC(C4)C2)C3)cc1` to `NC(=O)c1cc(OCCNCC(O)CON=C(C2CC2)C2CC2)ccc1O` (centres undefined), the logP falls from 3.9 to 1.69.

Compared with `CCCCC(Nc1ccc([N+](=O)[O-])cc1[N+](=O)[O-])C(=O)O` (centres undefined), `NC(Cc1ccccc1)C(=O)NC(Cc1ccccc1)C(=O)NC(Cc1ccccc1)C(=O)NC(Cc1ccccc1)C(=O)O` (centres undefined) (H-FFFF-OH; configuration not given here) is lower in logP: 3.25 for the first, 1.63 for the second.

First: CCCc1nc(NC(C)C)nc(N2CCOCC2)n1
Second: Nc1nc(N)c2c(N3CCOCC3)cccc2n1
The logP of the first is higher: 2.26 for the first, 1.11 for the second.

Compared with `Cc1cccc(OCC2CN=C(N)O2)c1C` (centres undefined), `Cc1cccc2c1OP(=O)(OCC1C=CC(n3cc(C)c(=O)[nH]c3=O)O1)OC2` (centres undefined) is lower in logP: 2.25 for the first, 0.71 for the second.

Going from `Cc1cc(Cl)c(C(C)C)c(Cl)c1Cl` to `O=c1cc(CCl)oc(Br)c1O`, the logP falls from 6.2 to 1.08.
